Source: patent US9963462B2 (priority 2015, dated 2018)

Legend:
[1] = molecular target: SNAP-hSPR (sepiapterin reductase, SPR) (Homo sapiens, UniProt P35270); experiment: biochemical; format: binding; settings: terbium labelled SNAP-hSPR / SSZ labelled SNAP-EGFP; read-out: hTR-FRET IC50
[2] = system: BH4 levels in SK-N-BE (2) cells; experiment: SKN-N-BE (2) cellular assay, BH4 levels by LC-MS; format: cell-based; settings: Homo sapiens, SKNBE2, read-out: SK-N-BE(2) IC50, SK-N-BE (2) cells, BH4 levels by LC-MS
Method: SKN-N-BE(2) Cellular Assay: SK-N-BE (2) cells were seeded in sterile, 96-well plates and incubated for 12-24 hours at 37° C. with 5% CO2 supply. Media was removed and fresh DMEM/F-12 media (containing Glutamine & Pen/Strep but no FBS) was added. Compounds (at different concentrations) were added to different wells. The plates were then incubated for 6-48 hours at 37° C. with 5% CO2 supply. Plates were then centrifuged and the supernatant was removed. The plates were then optionally washed once with PBS. They were then sealed and stored at −80° C. or immediately used. The cells were lysed and the level of BH4 was assessed by LC-MS.
Compounds were assayed for SPR inhibitory activity using a SKN-N-BE (2) cellular assay according to the following procedure. SK-N-BE (2) cells were seeded in sterile, 96-well plates and incubated for 12-24 hours at 37° C. with 5% CO2 supply. Media was removed and fresh DMEM/F-12 media (containing Glutamine & Pen/Strep but no FBS) was added. Compounds (at different concentrations) were added to different wells. The plates were then incubated for 6-48 hours at 37° C. with 5% CO2 supply. Plates were then centrifuged and the supernatant was removed. The plates were then optionally washed once with PBS. They were then sealed and stored at −80° C. or immediately used in the next step. The cells were lysed and the levels of BH4 were assessed by LC-MS.

Chain of SNAP-hSPR (sepiapterin reductase, SPR) (P35270 whole entry): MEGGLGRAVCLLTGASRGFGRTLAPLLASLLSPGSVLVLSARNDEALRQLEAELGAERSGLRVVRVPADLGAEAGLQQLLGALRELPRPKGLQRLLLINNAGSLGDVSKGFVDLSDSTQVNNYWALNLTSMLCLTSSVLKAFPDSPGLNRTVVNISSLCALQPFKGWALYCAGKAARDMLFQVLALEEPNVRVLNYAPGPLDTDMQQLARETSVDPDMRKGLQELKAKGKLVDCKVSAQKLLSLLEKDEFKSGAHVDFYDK

Structure (SMILES)	IC50 [1] [nM]	IC50 [2] [nM]
Cc1c(C(=O)N2CCC(C(F)(F)F)CC2)cnn1-c1nc2[nH]ncc2c(=O)[nH]1 [Q-0438]	100	35000
Cc1cc(=O)[nH]c(-n2ncc(C(=O)NCc3cnccn3)c2C)n1 [Q-0344]	70	23000
Cc1c(C(=O)N2CCC[C@@H](C(F)(F)F)C2)cnn1-c1nc2c(c(=O)[nH]1)CCC2 (single isomer, unassigned) [Q-0474]	7	600
COC(=O)c1cnn(-c2nc(C)cc(=O)[nH]2)c1C [Q-0310]	60	12000
CCC1(C#N)CCN(C(=O)c2cnn(-c3nc4c(c(=O)[nH]3)CCC4)c2)CC1 [Q-0725]	1	100
O=C(c1cccc(-c2nc3c(c(=O)[nH]2)CCC3)c1)N1CCC(C(F)(F)F)CC1 [Q-0593, 2-(3-(4-(trifluoromethyl)piperidine-1-carbonyl)phenyl)-6,7-dihydro-3H-cyclopenta[d]pyrimidin-4(5H)-one]	200	7400
Cc1cc(=O)[nH]c(-n2cc(C(=O)N3CCc4ccccc4C3)nn2)n1 [Q-0312, 6-methyl-2-[4-(1,2,3,4-tetrahydroisoquinoline-2-carbonyl)-1H-1,2,3-triazol-1-yl]-3,4-dihydropyrimidin-4-one]	20	10000
Cc1cc(=O)[nH]c(-n2nc(C)c(CCC(=O)N3CCCC3)c2C)n1 [Q-0281]	60	9000
Cc1c(C(=O)N2Cc3ccccc3C[C@H]2C(=O)NC(C)(C)C)cnn1-c1nc2c(c(=O)[nH]1)CCC2 [Q-0489]	8	53
Cc1c(C(=O)N2CCC(C(C)(C)C#N)CC2)cnn1-c1nn2cccc2c(=O)[nH]1 [Q-0600]	1	57
O=C(c1cnn(-c2nc3sccc3c(=O)[nH]2)c1)N1CCC(C2CC2)CC1 [Q-0751]	3	200
Cc1cc(=O)[nH]c(-n2ncc(C(=O)NC3CCCc4ccccc43)c2C)n1 (stereo not shown) [Q-0362]	20	2900
Cc1c(C(=O)N2CC[C@H](C)C[C@@H]2C(F)(F)F)cnn1-c1nc2c(c(=O)[nH]1)CCC2 (racemic) [Q-0480]	9	300
Cc1c(C(=O)N2CCc3ccccc3C2)cnn1-c1nc(C(C)(C)C)cc(=O)[nH]1 [Q-0383]	300	69000
COC1CCN(C(=O)c2cnn(-c3nc4c(c(=O)[nH]3)CCC4)c2C)CC1 [Q-0461]	3	400
Cc1c(C(=O)N2CCC(C(F)(F)F)CC2)cnn1-c1nc2scnc2c(=O)[nH]1 [Q-0441]	100	31000
Cc1c(C(=O)N2CCC(c3ccccc3)C2)cnn1-c1nc2c(c(=O)[nH]1)CCC2 (stereo not shown) [Q-0510]	5	100
Cc1c(C(=O)N2CCC(c3nc4ccccc4s3)CC2)cnn1-c1nn2c(F)ccc2c(=O)[nH]1 [Q-0607]	5	87
CC1CCN(C(=O)c2cnn(-c3nn4cccc4c(=O)[nH]3)c2C2CC2)CC1 [Q-0757]	2	200
Cc1cc(=O)[nH]c(-n2ccc(C(=O)N3CCOCC3)n2)n1 [Q-0343]	100	40000
Cc1c(C(=O)N2CCC(C(C)(C)C)CC2)cnn1-c1nc2c(c(=O)[nH]1)CCC2 [Q-0580]	3	22
CCN(C)C(=O)c1cnn(-c2nc(C)cc(=O)[nH]2)c1C [Q-0350]	20	11000

Structure (SMILES)	IC50 [1] [nM]	IC50 [2] [nM]
Cc1c(C(=O)Nc2ccccc2N2CCOCC2)cnn1-c1nc2c(c(=O)[nH]1)CCC2 [Q-0532]	20	44
O=c1[nH]c(-c2cc(S(=O)(=O)N3CCC(C(F)(F)F)CC3)ccn2)nc2c1CCC2 [Q-0522]	300	10000
Cc1cc(=O)[nH]c(-n2ncc(C(=O)NC3CCCC3)c2C(F)F)n1 [Q-0331]	80	15000
Cc1c(C(=O)N2CCC3(CC2)CC(F)(F)C3)cnn1-c1nc2c(c(=O)[nH]1)CCC2 [Q-0691]	2	91
Cc1cc(=O)[nH]c(-n2ncc(C(=O)N3CCc4cccnc4C3)c2C)n1 [Q-0300]	9	5000
Cc1nc(-n2ncc(C(=O)N3CCC(C(F)(F)F)CC3)c2C)[nH]c(=O)c1Cl [Q-0421]	3	700
Cc1c(C(=O)N2CCN(c3ccccc3)CC2)cnn1-c1nc2c(c(=O)[nH]1)CCC2 [Q-0545]	2	41
Cc1cc(=O)[nH]c(-n2ncc(C(=O)N3CCc4ccccc4C3C)c2C)n1 (stereo not shown) [Q-0313]	6	1500
Cc1c(C(=O)N2C[C@@H]3CN(C(=O)OC(C)(C)C)C[C@@H]32)cnn1-c1nn2cccc2c(=O)[nH]1 [Q-0857]	3	800
CCN(CC)C(=O)c1cnn(-c2nc(C)cc(=O)[nH]2)c1C [Q-0348]	10	6400
Cc1cc(=O)[nH]c(-n2ncc(C(=O)N3CCc4ccccc4C3)c2C(F)F)n1 [Q-0332]	10	2500
Cc1c(C(=O)N2CCC(O)(C(F)(F)F)CC2)cnn1-c1nn2cccc2c(=O)[nH]1 [Q-0803]	1	200
O=C(c1cnn(-c2nn3cccc3c(=O)[nH]2)c1)N1CCC(c2c[nH]c3ccccc23)CC1 [Q-0536]	7	59
Cc1c(C(=O)N2CCC(c3cn(C)c4ccccc34)CC2)cnn1-c1nc2c(c(=O)[nH]1)CCC2 [Q-0592]	20	76
Cc1c(C(=O)N2CCC(c3nc4cc(F)ccc4s3)CC2)cnn1-c1nn2cccc2c(=O)[nH]1 [Q-0604]	7	72
Cc1c(C(=O)N2CCn3c(nnc3C(F)(F)F)C2)cnn1-c1nn2cccc2c(=O)[nH]1 [Q-0859]	20	8300
Cc1c(C(=O)N2CC[C@H]3CCCC[C@H]3C2)cnn1-c1nc2ccsc2c(=O)[nH]1 [Q-0402]	10	41
Cc1c(C(=O)N2CCc3ccccc3C2)cnn1-c1ncc(Cl)c(=O)[nH]1 [Q-0387]	10	3700
N#CC1(c2ccccc2)CCN(C(=O)c2cnn(-c3nc4ccsc4c(=O)[nH]3)c2)CC1 [Q-0523]	20	100
Cc1c(C(=O)N2CCCC3(CC3)C2)cnn1-c1nn2cccc2c(=O)[nH]1 [Q-0819]	1	200
Cc1cc(=O)[nH]c(-n2ncc(C(=O)N(C)C)c2C)n1 [Q-0317]	60	20000
O=c1[nH]c(-n2cc(OC3CCCC3)cn2)nc2c1CCC2 [Q-0529]	10	100

Structure (SMILES)	IC50 [1] [nM]	IC50 [2] [nM]
O=C(c1ccc(-c2nc3c(c(=O)[nH]2)CCC3)nc1)N1CCC(C(F)(F)F)CC1 [Q-0472, 2-{5-[4-(trifluoromethyl)piperidine-1-carbonyl]pyridin-2-yl}-3H,4H,5H,6H,7H-cyclopenta[d]pyrimidin-4-one]	200	17000
Cc1c(C(=O)N2CCC(C#N)(c3ccccc3)CC2)cnn1-c1nc2ccsc2c(=O)[nH]1 [Q-0550]	2	100
Cc1cc(=O)[nH]c(-n2ncc(C(=O)NCC(F)(F)C(F)(F)F)c2C)n1 [Q-0364]	70	16000
Cc1c(C(=O)N2CCc3ccccc3C2)cnn1-c1nc(C(F)(F)F)cc(=O)[nH]1 [Q-0393]	6	800
Cc1c(C(=O)N2CCC(C(F)(F)F)C2)cnn1-c1nc2ccsc2c(=O)[nH]1 (stereo not shown) [Q-0403]	9	1100
Cc1c(C(=O)N2CCC(c3nc4cc(F)ccc4s3)CC2)cnn1-c1nc2c(c(=O)[nH]1)CCC2 [Q-0587]	10	21
Cc1c(C(=O)N2c3ccccc3CC2C)cnn1-c1nc2ccsc2c(=O)[nH]1 (stereo not shown) [Q-0401]	30	400
Cc1c(C(=O)N2CCC(c3c[nH]c4cc(F)ccc34)CC2)cnn1-c1nc2c(c(=O)[nH]1)CCC2 [Q-0565]	6	11
Cc1c(C(=O)N2CCC(C(C)(C)C#N)CC2)cnn1-c1nc2ccsc2c(=O)[nH]1 [Q-0531]	4	62
Cc1ccccc1N1CCN(C(=O)c2cnn(-c3nc4c(c(=O)[nH]3)CCC4)c2C)CC1 [Q-0485]	9	62
Cc1cc(=O)[nH]c(-n2ncc(C(=O)N3CCS(=O)(=O)CC3)c2C)n1 [Q-0304]	40	67000
Cc1c(C(=O)N2CC3CC2C3)cnn1-c1nn2cccc2c(=O)[nH]1 [Q-0791]	2	600
O=C(c1ccnc(-c2nc3ccsc3c(=O)[nH]2)c1)N1CCC(c2nc3ccccc3s2)CC1 [Q-0548]	20	2100
O=C(c1cnn(-c2nc3c(c(=O)[nH]2)CCC3)c1)N1CCC(CC(F)(F)F)CC1 [Q-0744]	3	100
CCC1(C#N)CCN(C(=O)c2cn(-c3nn4cccc4c(=O)[nH]3)nn2)CC1 [Q-0775]	2	1000
Cc1c(C(=O)N2CCn3cnnc3C2)cnn1-c1nn2cccc2c(=O)[nH]1 [Q-0853]	30	10000
Cc1c(C(=O)N2CCC(C(C)(C)C)CC2)cnn1-c1nc2ccsc2c(=O)[nH]1 [Q-0399]	3	24
O=C(c1cnn(-c2nc3ccsc3c(=O)[nH]2)c1)N1CCC(S(=O)(=O)c2ccccc2)CC1 [Q-0524]	4	1100
Cc1cc(=O)[nH]c(-n2ncc(C(=O)N(C)C3CCCc4ccccc43)c2C)n1 (stereo not shown) [Q-0373]	20	1500
O=C(c1cnn(-c2nn3cc(F)cc3c(=O)[nH]2)c1)N1CCC(CC(F)(F)F)CC1 [Q-0741]	4	400
Cc1c(C(=O)N2CCN(c3ccccc3)CC2)cnn1-c1nn2cccc2c(=O)[nH]1 [Q-0802]	1	67
